Here are results for one compound from patent US9556111B2, “Tertiary amines for use in the treatment of cardiac disorders” (Universitetet I Oslo, priority 2012, dated 2017).

The subject of data set [1] is metabolically active cells. The experiment in a line: Cell viability luminescence assay. As to conditions: 24 hours incubation. Type of data set: cell-based. How it is done:
Compound toxicity was measured in a luminescence assay that gives a signal proportional to the amount of metabolically active cells in the sample; the assay was performed as described by the supplier. All synthesized compounds were tested in the viability assay, and viability was registered at 24 hours and 72 hours.

Data set [2] deals with PLB-Ser^16 phosphorylation. Put plainly: PLB-Ser16 phosphorylation in isoproterenol-stimulated rat neonatal cardiomyocytes (western blot). Type of data set: cell-based. How it is done:
FIG. 7: Disruption of the AKAP18δ-PLB complex influences PLB-Ser^16 phosphorylation. Rat neonatal cardiomyocytes treated with compounds 24 hours prior stimulation with isoproterenol (100 nM, 5 minutes).
(§1) FIG. 9: Disruption of the AKAP18δ-PLB complex influences PLB-Ser^16 phosphorylation. Rat neonatal cardiomyocytes treated with compound 2g (A) or 3d (C) 24 hours prior stimulation with isoproterenol (100 nM, 5 minutes). Rat adult cardiomyocytes treated with compound 2g (B) 1 hour prior to stimulation with isoproterenol (10 nM, 5 minutes). The histograms show levels of phosphorylated Ser^16-PLB quantified by densitometry on Western blots (relative to actin levels).
Based on data from studies in cardiomyocytes assay using a peptide that blocks AKAP18δ-PLB interaction, it was expected that effective compounds would also cause disruption of the AKAP18δ-PLB complex and decrease PLB-Ser^16 phosphorylation (Lygren et al. in EMBO Reports, volume 8, issue 11, page 1061-1067 (2007). A small selection of hits from the derivatized compounds were tested in this cell-based assay, performed as described in Lygren et al.
Briefly, compounds were added to primary cultures of rat neonatal cardiomyocytes were added compounds about 24 hour prior stimulation with isoproterenol, and amount of phosphorylated Ser^16-PLB was analyzed by western blotting using a pSer^16-PLB phosphospecific antibody. Actin was used as a loading control.
Rat neonatal cardiomyocytes treated with compounds 24 hours prior stimulation with isoproterenol (100 nM, 5 minutes).
On the technique in general: Immunoblotting shows a protein as a band on a membrane.

The target in a further data set is SERCA2 (Rattus norvegicus (Rat), UniProt P11507). The experiment in a line: Patch clamp based SERCA2 activity assay in intact adult rat cardiomyocytes. As to conditions: 10 uM mesylate salt, cell dialysis in the presence of cAMP, preliminary data. How it is done:
FIG. 10: Compound 2g regulates SERCA2-activity. A novel patch clamp based technique was performed to directly assess SERCA-activity independently of receptor stimulation in intact cardiomyocytes. By dialyzing cardiomyocytes with a fixed level of cAMP with and without presence of compound 2g, preliminary data indicates ability of compound 2g to regulate SERCA2-activity in intact adult cardiomyocytes.
Adult rat cardiomyocytes were isolated and perfused with external solution (NaCl-125, CsCl 20, D-glucose 5, MgCl2 1, CaCl2 1.8, Hepes 10, 4-aminopyridine 5, probenecid 2, pH 7.4 by NaOH). […] Whole-cell Ca fluorescence measured from voltage-clamped cells was performed with Cairn Research Optoscan Monochromator (Excitation 488 nm, emission 515 nm long pass) (Cain Research Ltd., Faverham, UK). By applying 100 ms square voltage step from −45 to 0 mV at 0.125 Hz by an Axoclamp 2B amplifier (Axon Instruments, Foster City, Calif., USA), basal Ca transients were recorded, and tau values were obtained by monoexponential fitting of the Ca^2+ extrusion phase from regular transients (τ) and caffeine transients (τcaff) after rapid applications of 10 mM caffeine. SERCA2 rate constant were calculated as: k_SERCA=1/τ−1/τcaff.
In general terms: The patch-clamp technique gives a direct electrical read-out from membranes.

The subject of data set [3] is PLB-Ser^16 phosphorylation. Put plainly: PLB-Ser16 phosphorylation in isoproterenol-stimulated rat adult cardiomyocytes. In kind it is cell-based. The note with it: Cardiomyocyte, 1 hour prior isoproterenol (10 nM, 5 minutes), read-out: half-maximal effect, inhibition of phospholamban phosphorylation. How it is done:
as §1
Following on Example 53, two compounds, 2g and 3d (FIGS. 9A.B and 9C, respectively), were tested in more detail for their ability to interfere with phosphorylation of phospholamban after stimulation of neonatal (FIGS. 9A and 9C) or adult (FIG. 9B) primary cultures of cardiomyocytes.

For `CN(C)c1ccc(CN(Cc2ccccc2)Cc2ccc(N(C)C)cc2)cc1` [Compound 2g, 4-((benzyl(4-(dimethylamino)benzyl)amino)methyl)-N,N-dimethylaniline], the “Viability (100 μM) 24 hours” value in data set [1] was 0.56. Also, the IC50 in data set [2] (Rattus norvegicus, Cardiomyocyte, read-out: half-maximal effect, inhibition of phospholamban phosphorylation) is about 40 µM; in data set [3], about 100 µM. The “effect on PLB phosphorylation” value in data set [2] (rat neonatal cardiomyocytes, 24 hours prior isoproterenol (100 nM, 5 minutes), Example 53) is “concentration dependent inhibition of PLB-phosphorylation”. Moreover, in data set [2] (rat neonatal cardiomyocytes, compounds 24 hours prior isoproterenol (100 nM, 5 minutes)), the “Effect on PLB phosphorylation in cardiomyocytes” value is “++”. Further, on SERCA2, the SERCA2 activity entry was “increased SERCA2 activity”.
